From patent US7741348B2, “Bisheterocycle tandem compounds useful as antiviral agents, the uses thereof and the compositions comprising such compounds” (Shanghai Institute of Materia Medica, Chinese Academy of …, priority 2005, dated 2010)
Converted amounts (≈) assume the structure as drawn. Where two headings read alike, the source gives them in different places.

Experiments:
[1] = test system: MDCK (canine kidney) cells; assay: 50% toxicity concentration in the anti-influenza screen (MDCK cells); assay type: cell-based; settings: 50% toxity concentration, Table 3-2 (influenza screen, MDCK cells)
Excerpt: (§1) 4. Screening of the samples for the anti-influenza virus A and B activity: MDCK (canine kidney) cells were used as the virus host to test the inhibition effect of the compounds of the present invention on the cytopathic effect (CPE) of the cells caused by the virus.

[2] = test system: influenza A virus; assay: Anti influenza A virus activity, cytopathic effect (CPE) in MDCK cells; assay type: cell-based
Excerpt: as §1

[3] = Cytotoxicity to HepG2.2.15 cells (MTT method); assay type: cell-based; settings: human, HepG2.2.15 cells (HBV-transgenic human hepatoma cells), 50% death concentration, eighth day
Excerpt: (§2) Hepatitis B virus (HBV) transgenic human hepatoma carcinoma cell, HepG2.2.15 cell line, can secrete hepatitis B virus particles (containing antigen and DNA) into supernatant when being cultured.
(§3) Under action of antiviral drugs, the contents of HBsAg, HBeAg and viral DNA secreted from cells into the supernatant were detected and are compared with the contents of control groups without drugs, so that the antiviral activity of the compounds of the present invention can be measured as well as the cytotoxic effect of compounds of the present invention. The value concentration of the compounds of the present invention which caused 50% of cells dead and was measured with MTT method was CC50; and the value concentration of the compounds of the present invention which inhibited the secretion of HBsAg and HBeAg detected by ELISA method and inhibited 50% of viral DNA replication detected by fluorescent quantification PCR method was IC50.
(§4) HepG2.2.15 cells were inoculated on a 96-well plate, and the compounds of the present invention were added next day. The medium and the compound solutions of the same concentration were renewed periodically. The culture supernatants were collected on the eighth day to be detected. MTT was added to the cells on the 96-well plate, and MTT dissolving liquid was added after 4 hours to be reacted overnight. OD570 was measured next day on microplate reader. And the cytotoxicity of the compounds of the present invention to the HepG2.2.15 cells, the effect of the compounds of the present invention on the growth of the cells, and the concentration of the compound of the present invention (CC50) causing 50% of the cells dead were estimated according to the OD values.

[4] = test system: hepatitis B virus (HBV); assay: HBsAg secretion in HepG2.2.15 culture supernatant (ELISA); assay type: cell-based; settings: HepG2.2.15 supernatant, eighth day, read-out: HBsAg secreation IC50
Excerpt: as §2, §3, §4
(§5) HBsAg and HBeAg were detected with assaying kits (purchased from Sino-American biotechnological company). Samples were added to the coated strip plate, and the same amount of enzyme labeled conjugate was added, after reacting under 37° C. for 1 hour, the plate was washed 5 times. Colorant solutions A and B were added, and the reaction was stopped after 15 minutes, and OD450/630 was measured. The half inhibition rate IC50 of the sample for the HBV antigen was calculated according to the OD values.

[5] = test system: hepatitis B virus (HBV); assay: HBeAg secretion in HepG2.2.15 culture supernatant (ELISA); assay type: cell-based; settings: HepG2.2.15 supernatant, eighth day, read-out: HBeAg secreation IC50
Excerpt: as §2, §3, §4, §5

[6] = test system: hepatitis B virus (HBV); assay: HBV-DNA replication in HepG2.2.15 culture supernatant (fluorescent quantification PCR); assay type: cell-based; settings: for IC50: HepG2.2.15 supernatant, eighth day, fluorescent quantification PCR, read-out: DNA replication IC50
Excerpt: as §2, §3, §4
A suitable amount of culture supernatant was added into a same volume of virus extract solution, and was boiled after mixed uniformly, then centrifuged at 10000 rpm for 5 min under room temperature. A suitable amount of supernatant was collected for PCR amplification. Five HBV-DNA standard samples were used to set a standard curve. According to the obtained viral DNA replication value, the inhibition rates of HBV-DNA replication of the compound of the present invention at different concentrations were calculated, and then the half inhibition rates of the compounds were calculated to obtain IC50. For the samples that can not be calculated for IC50 value, they can be represented by ICX and given the corresponding concentration values.

[7] = test system: herpes virus I (HSV-I); assay: Anti herpes virus I activity, cytopathic effect in Vero cells; assay type: cell-based; settings: Human alphaherpesvirus 1, Vero, read-out: Anti herpes virus I HSV-I (IC50)
Excerpt: (§6) 3. Screening of the compounds for the anti-herpes virus I and II activity: Vero (African green monkey kidney) cells were used as virus host to test the inhibition effect of the compounds of the present invention on the cytopathic effect of the Vero cells caused by Herpes virus I and II.

[8] = test system: herpes virus II (HSV-II); assay: Anti herpes virus II activity, cytopathic effect in Vero cells; assay type: cell-based; settings: read-out: Anti herpes virus II HSV-II (IC50)
Excerpt: as §6

[9] = test system: Vero (African green monkey kidney) cells; assay: 50% toxicity concentration in the anti-herpes virus screen (Vero cells); settings: 50% toxity concentration, Table 3-1 (herpes virus screen, Vero cells)
[10] = Human alphaherpesvirus 2, Vero cells, cytopathic effect

COC(=O)c1nc(-c2csc([C@@H](NC(=O)CC=C(C)C)C(C)C)n2)oc1C [Wang391.49-2]
TC50 [1]: >1000 µg/mL | IC50 [2]: > 192 µg/mL

COC(=O)c1nc(-c2csc([C@@H](NC(=O)CC3=CCCCC3)C(C)C)n2)oc1C [Wang 417.52]
TC50 [1]: 231.12 µg/mL (≈ 554 µM) | IC50 [2]: 68.7 µg/mL (≈ 165 µM)

CCOC(=O)c1nc(-c2nccs2)[nH]c1CC(C)C [Wang279-1]
CC50 [3]: 786 µM | IC50 [4]: 143 µM | IC50 [5]: 102 µM | DNA replication IC60 ([6]; ICX: concentration with 60% inhibition of HBV-DNA replication, IC50 not calculable): IC60 = 37 uM

COC(=O)c1coc([C@H](C)NC(=O)c2nc(-c3csc([C@@H](NC(=O)CC4=CCCCC4)C(C)C)n3)oc2C)n1 [Wang 555.65]
TC50 [1]: 577.35 µg/mL (≈ 1040 µM) | IC50 [2]: 44.5 µg/mL (≈ 80 µM)

CCCCc1[nH]c(-c2cccs2)nc1C(=O)OCC [Wang278]
CC50 [3]: 153 µM | IC50 [4]: 67.3 µM | IC50 [5]: 24 µM | IC50 ([6]; Hepatitis B virus): 4.8 µM

COC(=O)c1nc(-c2csc([C@@H](NC(=O)COCc3ccccc3)C(C)C)n2)oc1C [Wang 443.52]
IC50 [7]: 107 µg/mL (≈ 240 µM) | IC50 ([8]; Human alphaherpesvirus 2, Vero): 78.8 µg/mL (≈ 178 µM) | TC50 [1]: 165.86 µg/mL (≈ 374 µM) | IC50 [2]: 1.29 µg/mL (≈ 2.91 µM) | TC50 [9]: 168.24 µg/mL (≈ 379 µM)

O=C(O)c1nc(-c2nccs2)sc1Cc1ccccc1 [Wang302]
IC50 [5]: 83.2 µM | IC50 ([6]; Hepatitis B virus): 63.1 µM

COC(=O)c1nc(-c2nccs2)sc1Cc1ccccc1 [Wang316]
CC50 [3]: 174 µM | IC50 [4]: 33.7 µM | IC50 [5]: 70.5 µM | IC20 ([6]; Hepatitis B virus, HepG2.2.15): 31.3 µM

COC(=O)c1coc([C@H](C)NC(=O)c2nc(-c3csc([C@@H](NC(=O)CC=C(C)C)C(C)C)n3)oc2C)n1 [Wang529.61-2]
TC50 [1]: 577.35 µg/mL (≈ 1090 µM) | IC50 [2]: 111 µg/mL (≈ 210 µM)

COC(=O)c1coc([C@H](C)NC(=O)c2nc(-c3csc([C@@H](NC(=O)c4ccccc4)C(C)C)n3)oc2C)n1 [Wang 537.59]
TC50 [1]: >1000 µg/mL | IC50 [2]: 1.29 µg/mL (≈ 2.4 µM)

COC(=O)c1nc(-c2ncco2)sc1-c1ccc(F)cc1Cl [Wang338]
CC50 [3]: 200 µM | IC50 [4]: 77.6 µM | IC50 [5]: 22.3 µM | IC50 ([6]; Hepatitis B virus): 6.1 µM

COc1ccccc1C(=O)N[C@H](c1nc(-c2nc(C(=O)O)c(C)o2)cs1)C(C)C [Wang415.46]
TC50 [1]: 333.33 µg/mL (≈ 802 µM) | IC50 [2]: 29 µg/mL (≈ 69.8 µM)

COC(=O)c1nc(-c2csc([C@@H](NC(=O)C3CCC3)C(C)C)n2)oc1C [Wang 377.46-1]
TC50 [1]: 500 µg/mL (≈ 1320 µM) | IC50 [2]: 111 µg/mL (≈ 294 µM)

COC(=O)c1nc(-c2csc([C@@H](NC(=O)c3cccc(F)c3)C(C)C)n2)oc1C [Wang417.46-P]
IC50 [8, 10]: 107 µg/mL (≈ 255 µM) | TC50 [1]: 422.43 µg/mL (≈ 1010 µM) | IC50 [2]: 0.9 µg/mL (≈ 2.16 µM) | TC50 [9]: 198.43 µg/mL (≈ 475 µM)

COC(=O)c1nc(-c2csc([C@@H](NC(=O)c3cccs3)C(C)C)n2)oc1C [Wang405.49]
CC50 [3]: 154 µM | IC50 [4]: 63.5 µM | IC50 [5]: 46 µM | IC50 ([6]; Hepatitis B virus): 76 µM

COC(=O)c1coc([C@H](C)NC(=O)c2nc(-c3csc([C@@H](NC(=O)C4CC4)C(C)C)n3)oc2C)n1 [Wang 501.56-1]
IC50 [8, 10]: 293 µg/mL (≈ 585 µM) | TC50 [1]: 303.69 µg/mL (≈ 605 µM) | IC50 [2]: 1.18 µg/mL (≈ 2.35 µM) | TC50 [9]: 707.11 µg/mL (≈ 1410 µM)
